Compared with `O=C(Cc1ccc(OCc2ccc(F)cc2)cc1)NC1(c2nn[nH]n2)Cc2ccc(-c3ccc(Cl)cc3)cc2C1` (configuration not stated), `Cc1ccc(CCNC(=O)c2ccc3n2Cc2ccccc2N(C(=O)c2ccc(-c4ccccc4C)c(C)c2)C3)cc1` is higher in melting point: 108 to 110 °C for the first, 161 to 163 °C for the second.

First: NS(=O)(=O)OCCOc1cccc(O)c1
Second: COc1cc(C=O)ccc1OCCCCCCOC(C)=O
The melting point of the first is lower: 56 to 60 °C for the first, 74 to 75 °C for the second.

Compared with `CCOC(=O)C(CCCN(C)CCc1ccc(OC)c(OC)c1)(C(=O)OCC)c1ccc(OC)c(OC)c1`, `COc1ccc(-c2nc(CN(C)c3ccccc3)nc3cc(OC)c(OC)cc23)cc1OC` is higher in melting point: 101 to 104 °C for the first, 141 to 143 °C for the second.

Compared with `CSc1nccn1N=Cc1cc(C(C)(C)C)c(O)c(C(C)(C)C)c1`, `CSc1nccn1-c1cccc(C(=O)CC(=O)Nc2cc(-c3ccccc3F)c(OC(C)(C)C)cc2NC(=O)OC(C)(C)C)c1` is lower in melting point: 181 to 183 °C for the first, 59 to 62 °C for the second.

First: CCCCCCC[C@H]1CC[C@H](CCc2ccc(-c3ccc(Br)cc3F)cc2)CC1
Second: CCCCCCCCCCCCCCCc1cc2c(C(=O)OCC)cccc2[nH]1
The melting point of the first is higher: 54 °C for the first, 42 to 45 °C for the second.

First: COC(=O)C(Oc1cc(OCc2ccc3ncoc3c2)ccc1C#N)c1ccccc1Cl (racemic)
Second: N#CCc1ccc(-c2nc3ccccc3o2)cc1-c1cccc(C#N)c1
The melting point of the first is lower: 157 to 159 °C for the first, 175 to 176 °C for the second.

First: Cc1cc2ncc(-c3nnnn3C)c(O)c2cc1C
Second: CCn1ncc2c1ncc1c(=O)n(C)c3cc(C)nn3c12
The melting point of the first is higher: 301 to 303 °C for the first, 206 to 207 °C for the second.

First: CN(C)C=Cc1ncc([N+](=O)[O-])n1CCN1CCOCC1
Second: O=C1c2cccc([N+](=O)[O-])c2C2CC3(CCN12)OCCO3 (configuration not stated)
The melting point of the first is lower: 105 to 106 °C for the first, 206 °C for the second.

First: COc1cc(CO)ccc1OCc1sc(-c2ccccc2)nc1C
Second: CCN(CC)C(=O)c1ccc(-c2nc(=O)c3ccccc3s2)cc1
The melting point of the first is lower: 152 to 153 °C for the first, 180 °C for the second.

Compared with `CCCCCc1cc2c(nc(O)n2CC(C)(C)O)c(N)n1`, `CCOC(=O)c1cnc2nc(OCC)ccc2c1O` is lower in melting point: 240 to 243 °C for the first, 175 to 179 °C for the second.

First: O=C(OCc1ccccc1[N+](=O)[O-])C(F)(F)C(F)(F)C(F)(F)C(F)(F)C(F)(F)C(F)(F)C(F)(F)F
Second: O=C(Nc1cccc([N+](=O)[O-])c1)c1cccnc1Oc1cccc(C(F)(F)F)c1
The melting point of the first is lower: 34 to 35 °C for the first, 90 to 95 °C for the second.

First: CC(C)(C)c1ccc(-c2snnc2S)cc1
Second: CC(C)(N=C=O)c1ccc2cc(C(C)(C)N=C=O)ccc2c1
The melting point of the first is higher: greater than 150 °C for the first, 85.5 to 87 °C for the second.

First: CCOC(=O)Cc1nn(CC(=O)Nc2cc(C(F)(F)F)ccc2Br)c(=O)c2ccccc12
Second: C=C1N(C)C(=O)OC12CCN(CCCN1c3ccccc3Sc3ccc(C(F)(F)F)cc31)CC2
The melting point of the first is higher: 160 °C for the first, 116 to 118 °C for the second.

First: COC(=O)c1ccc(OC)c(O)c1
Second: CC(=NO)c1cccc(N)c1
The melting point of the first is lower: 62 to 63 °C for the first, 133 °C for the second.

Compared with `CN1CCC(Oc2cc3ccccc3cc2C(N)=O)C1` (configuration not stated), `Fc1ccccc1-c1cn([C@H]2CN3CCC2CC3)nn1` is lower in melting point: 128 to 130 °C for the first, 94 °C for the second.

First: CC(C)(C)c1cc(C(=O)Nc2cccc(SCc3cccnc3)c2)ccc1O
Second: CCC(CC)C(NC(=O)c1ccc(Cl)cc1)Nc1c(Nc2cccnc2)c(=O)c1=O (configuration not stated)
The melting point of the first is lower: 95 to 100 °C for the first, 232 to 233 °C for the second.

First: COC(=O)C(F)=CC1C(C(=O)O)C1(C)C (configuration not stated)
Second: COC(=O)C(C)=CNC(=O)Nc1cc(C(=O)OC(C)C)c(Cl)cc1F
The melting point of the first is lower: 89 °C for the first, 189 to 190 °C for the second.

Compared with `Nc1c(Br)cc(F)c(Cl)c1F`, `O=C(NNC(=O)c1c(F)c(F)c(F)c(F)c1F)c1cc(Cl)ccc1Cl` is higher in melting point: 62 °C for the first, 227 to 232 °C for the second.

First: CC(C)(C)CC(=O)N1CCN(c2ccc3ncc(Br)n3n2)CC1
Second: COc1ccc(N2CCN(N)CC2)cc1
The melting point of the first is higher: 170 to 171 °C for the first, 107 °C for the second.

`O=C(O)c1cccc(-n2c(-c3ccccc3)cc3c2-c2ccccc2CC3)c1` and `O=C(c1ccccc1)c1ccc(C(=O)c2ccc(C(=O)c3ccccc3)cc2)cc1` cannot be ordered by melting point: 225 to 228 °C for the first, 224 to 228 °C for the second.

First: Cc1ccc(-c2ccc(=S)[nH]n2)c(OCC(O)CNC(C)(C)C)c1 (configuration not stated)
Second: CCOc1ccc(Nc2nc(NC(CO)CO)nc(N(C)C3CCN(C)CC3)n2)cc1Cl
The melting point of the first is higher: 135 to 140 °C for the first, 84 °C for the second.

First: CC1=C(C(=O)OCCCO[N+](=O)[O-])C(c2cccc([N+](=O)[O-])c2)C(C(=O)OCCNC(=O)c2ccccn2)=C(C)N1 (configuration not stated)
Second: C=CCOC(=O)c1cccc(NC(=O)NCC(=O)Nc2ccccc2C(=O)c2ccc(OC)cc2)c1
The melting point of the first is lower: 146 to 148 °C for the first, 167 to 169 °C for the second.

Compared with `FC(F)(F)COc1ccc(CCNc2ncnc3scnc23)cn1`, `NC(=O)c1ccc(-c2ccc3nnn(Cc4ccc5ncsc5c4)c3n2)cc1Cl` is higher in melting point: 109 to 112 °C for the first, 238 to 240 °C for the second.

First: NS(=O)(=O)c1ccccc1S(=O)Cc1ccccc1 (configuration not stated)
Second: Cc1cc(Cc2ccc(NS(C)(=O)=O)cc2F)n(C)c1C(=O)c1ccccc1
The melting point of the first is higher: 206 to 209 °C for the first, 165 to 167 °C for the second.

Compared with `CC(SC(=O)c1ccccc1)C(=O)N(CC(=O)O)C1CC1` (configuration not stated), `CCN(S(=O)(=O)NC(=O)N1N=C(C)CC1c1ccccc1)S(=O)(=O)N(C)C` (configuration not stated) is lower in melting point: 140 to 143 °C for the first, 138 to 139 °C for the second.

Compared with `OCCCN1CCN(C2=Nc3ccccc3Nc3ccsc32)CC1`, `c1ccc2nc(N3CCN(Cc4n[nH]c5ccccc45)CC3)ccc2c1` is higher in melting point: 172 to 173 °C for the first, 187 to 188 °C for the second.

First: C[C@@H]1C(=O)C[C@H]2C[C@@H]1OO[C@@]2(C)/C=C/c1c(F)c(F)c(F)c(F)c1F
Second: Fc1c(F)c(F)c(CSc2nc3ccccc3s2)c(F)c1F
The melting point of the first is higher: 128 °C for the first, 51 to 53 °C for the second.

Compared with `O=C(Nc1ccc(C#CCCN2CC=C(c3ccccc3)CC2)nc1)c1cccs1`, `Cc1cnc(CNC(=O)c2c(-c3ccccc3)c(-c3ccc(F)cc3)c(/C=C\[C@@H](O)C[C@@H](O)CC(=O)OC(C)(C)C)n2C(C)C)cn1` is lower in melting point: 187 to 188 °C for the first, 168 to 170 °C for the second.

First: COc1ccccc1N(CC(=O)N(C)c1ccccc1)C(=O)CN1C(=O)c2ccccc2C1=O
Second: Cc1c2ccccc2c(-c2cc(Br)c(OC(Cc3ccccc3)C(=O)O)c(Br)c2)c2c1sc1ccccc12 (configuration not stated)
The melting point of the first is higher: 199 °C for the first, 117 to 122 °C for the second.

`CN1C[C@@H]2C[C@H]1CN2c1cc2c(cc1F)c(=O)c(C=O)cn2C1CC1` and `O=C1c2cccc3c(N4CCCCC4)c(Br)cc(c23)C(=O)N1O` cannot be ordered by melting point: 274 to 275 °C for the first, greater than 250 °C for the second.

`CCCc1cc2c(cc1C=NO)OCO2` and `CCCCC(=O)Nc1ccc([N+](=O)[O-])cc1Cl` cannot be ordered by melting point: 83 °C for the first, 80 to 95 °C for the second.

Compared with `O=NN1CCCSc2ccccc21`, `COc1ccccc1C1(C(C)C)C(=O)N(C)c2ccccc21` (configuration not stated) is higher in melting point: 85 to 86 °C for the first, 113 to 115 °C for the second.

Compared with `CCOc1ccccc1Nc1nc(Nc2cc3c(cc2OC)CCN(CC(=O)N(C)C)CC3)ncc1Cl`, `COc1cc2c(cc1OC)N(C)C(=O)CN=C2c1cccc(-c2ccc(Cl)cc2)c1` is higher in melting point: 60 to 79 °C for the first, 131 °C for the second.

Compared with `CC1CCCCC1Nc1c(C(=O)O)cnn2cccc12` (configuration not stated), `O=C(Nc1cccc2cnccc12)NC1CC2(CCC2)Oc2c(O)cccc21` (configuration not stated) is higher in melting point: 195 °C for the first, 246 to 247 °C for the second.

First: COc1ccc(-c2nc(S(=O)(=O)C(F)(F)C(F)F)[nH]c2-c2cccs2)cc1
Second: C#CCOc1ccc2ccc(NC(=O)c3ccc(OC)cc3)nc2n1
The melting point of the first is higher: 163 to 164 °C for the first, 140 °C for the second.

First: O=C(CCl)Nc1cccc2[nH]ccc12
Second: O=C(NCCSCc1ccccc1Cl)c1c(Cl)cccc1Cl
The melting point of the first is higher: 114 to 116 °C for the first, 110 to 112 °C for the second.

Compared with `O=[N+]([O-])c1ccc(-c2nc(-c3ccccc3)no2)o1`, `Nc1ccc2nc(-c3ccccc3)nn2c1` is higher in melting point: 164 to 166 °C for the first, 201 °C for the second.

Compared with `Cc1ccc(C(=O)NCCN(C)C)cc1-n1c(C)cc(OCc2ccccc2CNC(=O)Nc2cc(C(C)(C)C)nn2-c2ccc(Cl)c(O)c2)c(Cl)c1=O`, `CC(C)CC(C=O)NC(=O)C(Cc1c[nH]cn1)NC(=O)C(CNC(=O)Cc1cccc2ccccc12)Cc1ccccc1` (configuration not stated) is lower in melting point: 185 to 186 °C for the first, 105 to 109 °C for the second.

Compared with `CCC(O)c1c(S(N)(=O)=O)nn(C)c1C(C)(C)C` (configuration not stated), `CCc1nn(C)c(N)c1Cl` is lower in melting point: 113 to 115 °C for the first, 50 to 51 °C for the second.

Compared with `Cc1cc2cc(NC(=O)Nc3ccc(Cl)cc3)ccc2[nH]1`, `O=c1[nH]cnc2c1-c1ccc(Cl)cc1C(c1ccccc1)=NC2` is lower in melting point: 257 to 260 °C for the first, 226 to 229 °C for the second.

First: COC(=O)C(Oc1ccc(C23CC4CC(CC(C4)C2)C3)cc1)c1ccc(Oc2ccc(Cl)cc2)cc1 (configuration not stated)
Second: CCCCOc1ccc(-c2nc(-c3ccc(Sc4ccccc4)cc3)nc(-c3ccc(OCCCC)cc3O)n2)c(O)c1
The melting point of the first is lower: 148 to 150 °C for the first, greater than 250 °C for the second.

Compared with `NC(=O)c1cc(C(=O)CN(Cc2ccccc2)Cc2ccccc2)ccc1OCCCCOC1CCCCO1` (configuration not stated), `CCCCCCCCCCCCCCCCCCOc1cc(C(N)=O)cc(N(CC(=O)OCc2ccccc2)CC(=O)OCc2ccccc2)c1` is lower in melting point: 118 to 123 °C for the first, 112 to 114 °C for the second.

First: CCOC(C)O[C@H]1C(=O)N[C@H]1C1CCCCC1 (some centres not stated)
Second: COc1ccc(N2CCN(c3c(C)c(C)c4c(c3C)C(N3CCCCC3)C(C)(C)O4)CC2)cc1 (configuration not stated)
The melting point of the first is lower: 87 to 89 °C for the first, 146 to 148 °C for the second.

First: CCC1(CC)CCSc2c(CC#Cc3ccc(C=O)cc3)cccc21
Second: CN(C)c1ccc(C=Nn2ccnc2CCc2ccccc2)cc1
The melting point of the first is lower: 55 to 63 °C for the first, 153 to 154 °C for the second.

First: C=C(C)COc1ccc(Br)cc1CN(CC)c1ccc(C(=O)NS(=O)(=O)c2scnc2C)nn1
Second: CCCC(=O)CC1NC(=O)c2ccsc2-n2cccc21 (configuration not stated)
The melting point of the first is lower: 128 °C for the first, 186 °C for the second.

First: CCOC(=O)c1nnn(O)n1
Second: CC1=C(/C=C/C(=O)N2CCN(C(N)=O)CC2)C(C)(C)CCC1
The melting point of the first is lower: 75 to 78 °C for the first, 144 °C for the second.

First: CCC(=CC(CSc1nccn1C)=NO)C(C)[N+](=O)[O-] (configuration not stated)
Second: CCCCCCCCCCCCCCCCCCOc1cc(NC(=O)OC(C)(C)C)cc([N+](=O)[O-])c1
The melting point of the first is higher: 91 to 93 °C for the first, 70 to 72 °C for the second.

`O=C1NC(=O)C(Cc2ccc([N+](=O)[O-])cc2)N1` (configuration not stated) and `Oc1cnc2cccc(Cl)c2n1` cannot be ordered by melting point: greater than 235 °C for the first, greater than 250 °C for the second.

In the case of `Cc1cccc(C)c1N1CC(C)N(c2cccc(C(F)(F)F)c2)C1=N` (configuration not stated), the melting point is reported as 160 to 166 °C.

From a melting point compilation (Tetko et al.; mined from patent text by program, amines drawn as free bases though some values may be those of a salt)
